Results: patent US11667632B2, “2-(1H-indazol-3-yl)-3H-imidazo[4,5-C]pyridines and their anti-inflammatory uses thereof” (BioSplice Therapeutics, Inc., priority 2015, dated 2023)

How the values were obtained:
[1] = Plasma concentrations after a single intra-articular injection of radiolabeled Compound 10 in rats; assay type: in vivo, Sprague Dawley (SD) rats; details: SD rats, single IA injection 1 μg/knee
Procedure: Plasma concentration and distribution of Compound 10 following a single IA injection in Sprague Dawley (SD) rats were investigated in radiolabeled and mass balance studies with a tritium-labeled (^3H) Compound 10. [^3H]-Compound 10 was formulated as a suspension in 0.5% carboxymethylcellulose/0.05% polysorbate 80 for intra-articular (IA) injection and diluted with unlabeled Compound 10 to the appropriate concentration and injected in the rat knee joint at a dose level equivalent to 1 μg/knee.

[2] = Quantitative whole body autoradiography and excretion of radiolabeled Compound 10 in rats; assay type: in vivo; details: SD rats, two IA injections at 1 μg/knee
Excerpt: In terms of excretion, 95% of the excreted radioactivity was recovered in the feces and only 5% in the urine. QWBA radiographic images and quantitation of radioactivity in the feces with much less recovery in the urine, support the hypothesis that [^3H]-Compound 10 is being eliminated by drainage in the lumbar and inguinal lymph ducts and lymph nodes, and through the small and large intestines and cecum in a mechanism consistent with slow passive fecal excretion, a major route of elimination of slowly metabolized xenobiotics. During this process, the radiolabeled [3H]-Compound 10 was degraded with only ˜1.5% of parent detected in the fecal matter.

[3] = system: Tumor Necrosis Factor Alpha (TNF-α); assay: Inhibition of TNF-α secretion in IL-1β-stimulated synovial fibroblasts (SW982), ELISA; assay type: cell-based; details: human synovial fibroblasts stimulated with IL-1β, treated 24 hrs, FIG. 14A
Procedure: Synovial fibroblasts (SW982 cells; ATCC) were cultured in Leibovitz's L-15 Medium (ATCC) with 10% FBS at 37° C. and 0% CO2. 24 hours before the start of the assay, media was changed to Leibovitz's L-15 Medium with […]. Compound 10 was dissolved in DMSO as a 10 mM stock and used to prepare compound source plates. A serial dilution (8-point dose-response) and compound transfer was performed using the ECHO 550 (Labcyte, Sunnyvale, Calif.) into 96-well clear bottom assay plates (Greiner Bio-One) with appropriate DMSO backfill for a final DMSO concentration of 0.05%. […] Plates were spun in a centrifuge for 1 minute at 10,000 rpm and supernatants were collected for ELISA.
Supernatants were diluted 1:1 for the TNFα assay and 1:4 for the IL6 assay using the assay medium. ELISA was performed using Human TNF-α ELISA MAX™ Deluxe (Catalog #430204, Biolegend, San Diego, Calif.) and Human IL-6 ELISA MAX™ Deluxe (Catalog #430504, Biolegend, San Diego, Calif.) kits. […] Following several washes to remove unbound avidin-HRP, the TMB substrate was added and the plates were read on the Cytation 3 plate reader (Biotek Inc., Winooski, Vt.) at an absorbance of 450 nm with correction at 570 nm. […] Inhibition profile and EC50 was calculated using Prism 5 (GraphPad Software Inc, La Jolla, Calif., USA).

IL-1β = assay: Inhibition of IL-1β in LPS-stimulated primary PBMCs (MSD U-plex); assay type: cell-based; details: human PBMCs, LPS (500 ng/mL), Compound 10 (150 nM), 24 hrs; MSD platform; FIG. 15
Procedure: (§1) Primary peripheral blood mononuclear cells (PBMCs) freshly isolated from healthy human donors were obtained from AllCells Inc. and utilized for assays immediately. Compound 10 was dissolved in DMSO as a 10 mM stock and used to prepare compound source plates. A serial dilution (8-point dose-response) and compound transfer was performed using the ECHO 550 (Labcyte, Sunnyvale, Calif.) into 96-well clear bottom assay plates (Greiner Bio-One) with appropriate DMSO backfill for a final DMSO concentration of 0.05%. PBMCs were plated at 2×10e^5 cells/well in Roswell Park Memorial Institute (RPMI) 1640 Medium (Catalog #21870-100, Buffalo, N.Y.) with 1% L-glutamine, 1% HEPES, 1% Sodium Pyruvate, 2% Sodium Bicarbonate supplemented with 100 units/mL penicillin, 50 μg/mL streptomycin and 1% fetal bovine serum (Catalog #16140089, Life Technologies, Carlsbad, Calif.). […]
(§2) Supernatants were diluted appropriately for ELISA. […] Following several washes to remove unbound avidin-HRP, the TMB substrate was added and the plates were read on the Cytation 3 plate reader (Biotek Inc., Winooski, Vt.) at an absorbance of 450 nm with correction at 570 nm. […] Inhibition profile and EC50 was calculated using Prism 5 (GraphPad Software Inc, La Jolla, Calif., USA). […] Levels of cytokines were calculated using software form Meso Scale Discovery.

IL-2 = assay: Inhibition of IL-2 in LPS-stimulated primary PBMCs (MSD U-plex); assay type: cell-based; details: human PBMCs, LPS (500 ng/mL), Compound 10 (150 nM), 24 hrs; MSD platform; FIG. 15
Procedure: as §1, §2

IL-6 = assay: Inhibition of IL-6 in LPS-stimulated primary PBMCs (ELISA, MSD U-plex); assay type: cell-based; details: human PBMCs, LPS (500 ng/mL), Compound 10 (150 nM), 24 hrs; MSD platform; FIG. 15
Procedure: as §1, §2

IL-8 = assay: Inhibition of IL-8 in LPS-stimulated primary PBMCs (MSD U-plex); assay type: cell-based; details: human PBMCs, LPS (500 ng/mL), Compound 10 (150 nM), 24 hrs; MSD platform; FIG. 15
Procedure: as §1, §2

IFN-γ = assay: Inhibition of IFN-γ in LPS-stimulated primary PBMCs (MSD U-plex); assay type: cell-based; details: human PBMCs, LPS (500 ng/mL), Compound 10 (150 nM), 24 hrs; MSD platform; FIG. 15
Procedure: as §1, §2

- Mean radioactivity exposure AUC(0-inf) ([1]; females): 1.818 ng-equiv.h/g
- Mean radioactivity exposure AUC(0-t) ([1]; females): 1.040 ng-equiv.h/g
- Tmax ([1]; females): 4 h
- apparent terminal elimination half-life in the blood ([1]; females): 124 h
- Mean radioactivity exposure AUC(0-inf.) ([1]; males): 1.548 ng-equiv.h/g
- Mean radioactivity exposure AUC(0-t) ([1]; males): 0.832 ng-equiv.h/g
- Tmax ([1]; males): 1 h
- apparent terminal elimination half-life in the blood ([1]; males): 57 h
- excreted radioactivity recovered in the feces [2]: 95%
- excreted radioactivity recovered in the urine [2]: 5%
- parent detected in the fecal matter [2]: ~1.5%
- total radioactivity recovered from the whole carcass, feces, urine and cage wash ([2]; QWBA): ~75%
- radioactivity in major organs ([2]; at 1 hour and up to 168 hours post-IA injection): negligible/undetectable
SMILES: CC(C)CC(=O)Nc1cncc(-c2ccc3[nH]nc(-c4nc5c(-c6cccc(F)c6)cncc5[nH]4)c3c2)c1 [Compound 10]
- inhibition of TNF-a secretion [3]: inhibition
- Inhibition of IL-1β (IL-1β): Inhibition
- Inhibition of IL-2 (IL-2): Inhibition
- Inhibition of IL-6 (IL-6): Inhibition
- Inhibition of IL-8 (IL-8): Inhibition
- Inhibition of IFN-γ (IFN-γ): Inhibition
